The record followed here is patent EP4737457A1, “POLYSUBSTITUTED MACROCYCLIC COMPOUND, AND PREPARATION METHOD THEREFOR AND USE THEREOF” (Shenzhen Salubris Pharmaceuticals Co., Ltd., priority 2023, dated 2025).

One data set deals with Pooled human plasma. The data set can be described thus: In vitro anticoagulant effect in human plasma (aPTT, EC1.5x). The data set is classed as biochemical. Conditions: 37 °C for 10 minutes. The procedure:
aPTT (Lot 220106600), Calcium Chloride (Lot 210305600), Needle Rinse Solution (Lot 211101300): produced by Shenzhen Mindray Bio-Medical Electronics Co., Ltd. Pooled human plasma: collected from healthy individuals using disposable venous blood collection tubes (Liuyang Sanli Medical Technology Development Co., Ltd., Lot 211108, sodium citrate 9:1). Blood was collected, centrifuged at room temperature at 3000 rpm for 10 minutes, and the supernatant was collected and stored for use (Lot 20220606).
Test compounds dissolved in 100% DMSO at 10 mM were diluted with 100% DMSO to concentrations of 0.29 µM, 0.59 µM, 1.17 µM, 2.34 µM, 4.69 µM, 9.38 µM, 18.75 µM, and 37.50 µM. Then 99 µL of pooled human plasma was added to each 1.5 mL centrifuge tube, followed by the addition of 1 µL of compound at different concentrations; 1 µL of DMSO was added to the blank control. The tubes were mixed by repeated manual inversion, centrifuged briefly using a mini centrifuge to collect the samples, and then incubated in a thermostatic water bath at 37 °C for 10 minutes with mixing. The aPTT was measured using a fully automated coagulation analyzer according to the preset program.
Curve fitting was performed using GraphPad Prism software to calculate EC1.5x.

The target of another data set is Human Factor XIa (Homo sapiens, UniProt P03951). The data set can be described thus: Inhibition of human coagulation Factor XIa by absorbance method (S-2366 substrate, 405 nm). In kind it is biochemical. Conditions: incubated at 37 °C for 20 minutes; substrate 800 µM; read-out: Recombinant Enzyme FXIa IC50. As to the method:
• Enzyme: Human Factor XIa (ENZYME […], Cat. No. HFXIa 1111a) • Substrate: S-2366™ (CHROMOGENIX, Cat. No. 82109039) • Buffer: 145 mM NaCl, 5 mM KCl, 1 mg/mL PEG 8000, 30 mM HEPES, pH 7.4.
Test compounds dissolved in 100% DMSO at 10 mM were diluted with 100% DMSO to concentrations of 1000 µM, 200 µM, 40 µM, 8 µM, 1.6 µM, 0.32 µM, 0.064 µM, 0.0128 µM, 0.00256 µM, and […]. Then 98 µL of FXIa enzyme solution (77.7 ng/mL) was added to each well of a 96-well plate, with 98 µL of buffer added to blank wells instead. Then, 2 µL of compound at different concentrations was added; DMSO was used instead for blank and control wells. The plate was mixed using a plate shaker and incubated at 37 °C for 20 minutes.
Finally, 100 µL of substrate (800 µM) was added to each well, and the absorbance was measured at 405 nm.
Curve fitting was performed using GraphPad Prism software to calculate the IC50 values.

The target of the next data set is T1, Human FIIa (Homo sapiens, UniProt P00734).
T1 construct: Human FIIa (Enzyme Research Laboratories, Cat. No. HT 1002a); purchased Enzyme Research Laboratories HT 1002a
In words: Inhibition of coagulation factor FIIa by absorbance method (S-2366 substrate, 405 nm). In kind it is biochemical. The note with it: Inhibitory Effect of Compounds on Coagulation Factor FIIa; 37 °C for 30 minutes. The procedure: Then 29.4 μL of FIIa enzyme solution (4 nM) was added to each well of a 384-well plate, with 29.4 μL of buffer added to blank wells instead. Then, 0.6 μL of compound at different concentrations was added; DMSO was used instead for blank and control wells. The plate was mixed using a plate shaker and incubated at 37 °C for 30 minutes. […] Table 6. Inhibitory Effect of Compounds on Coagulation Factor FIIa

Another data set addresses T2, Human Trypsin (Homo sapiens, UniProt P07477).
T2 construct: purchased Sigma T6424
In words: Inhibition of Trypsin by absorbance method (S-2222 substrate, 405 nm). In kind it is biochemical. The note with it: Inhibitory Effect of Compounds on Trypsin; 37 °C for 30 minutes. The procedure: • Enzyme: Human Trypsin (Sigma, Cat. No. T6424) • Substrate: S-2222™ (CHROMOGENIX, Cat. No. 82031639) • Buffer: 0.1 M sodium phosphate; 0.2 M NaCl and 0.5% PEG 8000, pH 7.4
Test compounds dissolved in 100% DMSO at 10 mM were diluted with 100% DMSO to concentrations of 10000 µM, 3333 µM, 1111 µM, 370.4 µM, 123.5 µM, 41.2 µM, 13.7 µM, and 4.6 µM. Then, 29.4 µL of Trypsin enzyme solution (0.8 nM) was added to each well of a 384-well plate, with 29.4 µL of buffer added to blank wells instead. Then, 0.6 µL of compound at different concentrations was added; DMSO was used instead for blank and control wells. The plate was mixed using a plate shaker and incubated at 37 °C for 30 minutes.
Finally, 30 µL of substrate at a concentration of 40 µM was added to each well, and the absorbance was measured at 405 nm.
Table 5. Inhibitory Effect of Compounds on Trypsin

In another data set the target is T3, α-Chymotrypsin (Homo sapiens, UniProt P17538).
T3 construct: α-Chymotrypsin (Sigma, Cat. No. C8946); purchased Sigma C8946
In words: Inhibition of Chymotrypsin by absorbance method (S-2586 substrate, 405 nm). In kind it is biochemical. The note with it: Inhibitory Effect of Compounds on Chymotrypsin; 37 °C for 30 minutes. As to the method:
• Enzyme: α-Chymotrypsin (Sigma, Cat. No. C8946) • Substrate: S-2586™ (Boatman Biotech, Cat. No. B2586) • Buffer: 0.05 M HEPES; 0.145 M NaCl; 5 mM KCl and 0.1% PEG 8000, pH 7.4
Test compounds dissolved in 100% DMSO at 10 mM were diluted with 100% DMSO to concentrations of 100 µM, 33.33 µM, 11.11 µM, 3.704 µM, 1.235 µM, 0.412 µM, 0.137 µM, and 0.046 µM. Then 29.4 µL of Chymotrypsin enzyme solution (20 nM) was added to each well of a 384-well plate, with 29.4 µL of buffer added to blank wells instead. Then, 0.6 µL of compound at different concentrations was added; DMSO was used instead for blank and control wells. The plate was mixed using a plate shaker and incubated at 37 °C for 30 minutes.
Finally, 30 µL of substrate at a concentration of 200 µM was added to each well, and the absorbance was measured at 405 nm.
Table 4. Inhibitory Effect of Compounds on Chymotrypsin

A short description of data set [1]: Pharmacokinetic experiment in rats (iv and PO). Conditions: male, Sprague-Dawley (SD), rat, plasma, 5 mg/kg.
From the text: (§1) Polyethylene glycol 400 (PEG-400, Lot GORKREUT, Shaen Chemical Technology (Shanghai) Co., Ltd.), DMSO (Lot 20200319, Guangdong Guanghua Sci-Tech Co., Ltd.), normal saline (Lot C20052604, Jiangxi Kelun Pharmaceutical Co., Ltd.). LC-MS instrument (Thermo Fisher Ultimate 3000 UPLC, TSQ QUANTUM ULTRA triple quadrupole mass spectrometer, AB SCIEX 5500 QTARP).
(§2) SD rats: Male, 180-250 g, purchased from Guangdong Vital River Laboratory Animal Technology Co., Ltd.
(§3) The test compound powder was accurately weighed, completely dissolved in DMSO, then PEG-400 was added. The mixture was vortexed and sonicated to mix, followed by the addition of normal saline. The mixture was vortexed and sonicated again to achieve a final concentration of 0.5 mg/mL (DMSO:PEG-400:NS = 5:60:35, V/V/V). The dosing volume was 10 mL/kg for oral gavage and 0.5 mL/kg for intravenous administration.
(§4) After intravenous or oral administration to rats, 200 µL of venous blood was collected at 5 min (not collected for oral group), 15 min, 30 min, 1 h, 2 h, 5 h, 7 h, and 24 h into heparinized EP tubes. The blood was centrifuged at 12,000 rpm for 2 minutes, and the plasma was collected and stored at -80 °C until analysis.
(§5) A precise amount of the test compound was weighed and dissolved in DMSO to 1 mg/mL as a stock solution. An appropriate volume of the compound stock solution was accurately pipetted and diluted with acetonitrile to prepare standard series solutions. 20 µL of each standard series solution was accurately pipetted and added to 180 µL of blank plasma, vortexed to mix, to prepare plasma samples equivalent to plasma concentrations of 1 ng/mL, 3 ng/mL, 10 ng/mL, 30 ng/mL, 100 ng/mL, 300 ng/mL, 1000 ng/mL, 3000 ng/mL, and 5000 ng/mL. Each concentration was analyzed in duplicate to establish the standard curve. 20 µL of plasma sample was taken, and 200 µL of an internal standard (propranolol, 5 ng/mL) in acetonitrile solution was added. The mixture was vortexed and centrifuged at 4000 rpm for 5 minutes. The supernatant was taken for LC-MS analysis. The LC-MS detection conditions were as follows: Chromatographic Column: Waters ACQUITY™ PREMIER HSS T3, 50*2.1 mm, 1.8 µm.
(§6) Mobile phase A: water (0.1% formic acid), mobile phase B: acetonitrile, flow rate: 0.5 mL/min, gradient elution: see Table 2 below.
(§7) After determining the plasma drug concentration by LC-MS, the pharmacokinetic parameters following administration to rats were calculated using the non-compartmental model in WinNonlin 6.1 software.
The next data set can be described thus: in vivo. Conditions: male, Sprague-Dawley (SD), rat.

The IC50 is the concentration that inhibits the measured activity by half. A word on the bioavailability: it is the share of a dose that reaches the circulation, judged against a reference dose that is usually intravenous. Low values mean poor availability, high ones good availability.

T3 sequence (P17538 34-164 limits assumed, other chains not shown): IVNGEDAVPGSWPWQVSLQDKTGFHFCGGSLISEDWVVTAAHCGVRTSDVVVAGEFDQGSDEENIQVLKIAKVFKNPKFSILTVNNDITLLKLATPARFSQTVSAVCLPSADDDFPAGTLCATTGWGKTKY
T3 sequence (P17538 167-263 limits assumed, other chains not shown): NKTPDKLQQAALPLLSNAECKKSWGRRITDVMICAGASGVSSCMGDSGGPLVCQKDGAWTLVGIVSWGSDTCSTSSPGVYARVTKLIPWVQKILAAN
Human Factor XIa, sequence (P03951 388-625 limits assumed): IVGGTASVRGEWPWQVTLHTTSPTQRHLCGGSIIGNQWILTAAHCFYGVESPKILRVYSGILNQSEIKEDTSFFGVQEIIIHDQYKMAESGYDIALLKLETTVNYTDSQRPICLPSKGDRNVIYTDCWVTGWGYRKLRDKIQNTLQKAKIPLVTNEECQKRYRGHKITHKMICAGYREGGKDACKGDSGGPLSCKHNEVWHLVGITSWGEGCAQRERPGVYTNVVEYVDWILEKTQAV
Human Factor XIa, sequence (P03951 19-387 partner limits assumed): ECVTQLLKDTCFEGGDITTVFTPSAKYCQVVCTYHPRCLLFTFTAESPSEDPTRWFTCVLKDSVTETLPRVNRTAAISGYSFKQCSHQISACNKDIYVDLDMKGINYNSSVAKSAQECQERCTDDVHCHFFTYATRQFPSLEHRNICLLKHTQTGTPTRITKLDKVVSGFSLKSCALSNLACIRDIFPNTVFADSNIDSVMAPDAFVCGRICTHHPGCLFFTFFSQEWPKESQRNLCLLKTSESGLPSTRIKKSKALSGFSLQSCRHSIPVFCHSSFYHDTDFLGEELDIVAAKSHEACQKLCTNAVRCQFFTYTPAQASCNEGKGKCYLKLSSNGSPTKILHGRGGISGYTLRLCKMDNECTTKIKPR
From the text for in vivo: as §1, §2, §3, §4, §5, §6, §7

On to `[2H]C([2H])([2H])n1ncc2c1-c1cc(cc(F)c1F)[C@@H](n1cnc(-c3c(-n4cc(C(F)(F)F)nn4)ccc(Cl)c3F)cc1=O)CCC[C@@H](C)C(=O)N2` [Compound 16, (3S,7R)-3-(4-(3-chloro-2-fluoro-6-(4-(trifluoromethyl)-1H-1,2,3-triazol-1-yl)phenyl)-6-oxopyrimidin-1(6H)-yl)-2^52^6-difluoro-7-methyl-1^1-(methyl-d3)-1^1H-9-aza-1(5,4)-pyrazola-2(1,3)-benzenacyclononaphan-8-one], for which the “Human Plasma APTT 1.5x” value in the data set with Pooled human plasma turned out to be 0.31 µM. For the same compound, the IC50 at Human Factor XIa was 0.4 nM; at Human FIIa, 9210 nM; on Human Trypsin, 219 nM; against α-Chymotrypsin, 164 nM. In data set [1], this compound showed a bioavailability of 44.5%.
`[2H]C([2H])([2H])n1ncc2c1-c1cc(F)c(F)c(c1)[C@@H](n1cnc(-c3cc(Cl)ccc3-n3cc(Cl)nn3)cc1=O)CCC[C@@H](C)C(=O)N2` [Compound 1, (3S,7R)-3-(4-(5-chloro-2-(4-chloro-1H-1,2,3-triazol-1-yl)phenyl)-6-oxopyrimidin-1(6H)-yl)-2^4,2^5-difluoro-7-methyl-1^1-(methyl-d3)-1^1H-9-aza-1(5,4)-pyrazola-2(1,3)-benzenacyclononaphan-8-one]: the half-inhibitory concentration (IC50) was 0.24 nM at Human Factor XIa, 5630 nM at Human FIIa, 225 nM at Human Trypsin and 411 nM against α-Chymotrypsin.
For `[2H]C([2H])([2H])n1ncc2c1-c1cc(cc(F)c1F)[C@@H](n1cnc(-c3cc(Cl)ccc3-n3cc(Cl)nn3)cc1=O)CCC[C@@H](C)C(=O)N2` [Compound 17, (3S,7R)-3-(4-(5-chloro-2-(4-chloro-1H-1,2,3-triazol-1-yl)phenyl)-6-oxopyrimidin-1(6H)-yl)-2^5,2^6-difluoro-7-methyl-1^1-(methyl-d3)-1^1H-9-aza-1(5,4)-pyrazola-2(1,3)-benzenacyclononaphan-8-one], the “Human Plasma APTT 1.5x” value with Pooled human plasma was 0.04 µM. Besides, the IC50 is 0.36 nM on Human Factor XIa, 6920 nM against Human FIIa, 322 nM against Human Trypsin and 390 nM against α-Chymotrypsin. This compound gave a bioavailability in data set [1] of 59.6%.
On to `[2H]C([2H])([2H])n1ncc2c1-c1cc(F)cc(c1)[C@@H](n1cnc(-c3cc(Cl)ccc3-n3cc(Cl)nn3)cc1=O)CCC[C@@H](C)C(=O)N2` [Comparative compound 3, reference compound], for which the concentration for half-maximal inhibition (IC50) amounted to 2150 nM on Human FIIa, 110 nM on Human Trypsin and 103 nM at α-Chymotrypsin.
Take `[2H]C([2H])([2H])n1ncc2c1-c1cc(F)c(F)c(c1)[C@@H](n1cnc(-c3c(-n4cc(C(F)(F)F)nn4)ccc(Cl)c3F)cc1=O)CCC[C@@H](C)C(=O)N2` [Compound 4, (3S,7R)-3-(4-(3-chloro-2-fluoro-6-(4-(trifluoromethyl)-1H-1,2,3-triazol-1-yl)phenyl)-6-oxopyrimidin-1(6H)-yl)-2^4,2^5-difluoro-7-methyl-1^1-(methyl-d3)-1^1H-9-aza-1(5 ,4)-pyrazola-2(1,3)-benzenacyclononaphan-8-one]: in the data set on Pooled human plasma, the “Human Plasma APTT 1.5x” value is given as 0.20 µM. Further, the IC50 on Human Factor XIa is 0.62 nM; at Human Trypsin, 355 nM; against α-Chymotrypsin, 173 nM. The same compound came in with a bioavailability in data set [1] of 19%.
Turning to `[2H]C([2H])([2H])n1ncc2c1-c1cccc(c1)[C@@H](n1cnc(-c3cc(Cl)ccc3-n3cc(Cl)nn3)cc1=O)CCC[C@@H](C)C(=O)N2` [Comparative compound 2, reference compound], the IC50 against Human FIIa stood at 3140 nM; against Human Trypsin, 83.1 nM; on α-Chymotrypsin, 79.2 nM.
In the case of `[2H]C([2H])([2H])n1ncc2c1-c1cc(cc(F)c1F)[C@@H](n1cnc(-c3cc(Cl)ccc3-n3cc(C(F)(F)F)nn3)cc1=O)CCC[C@@H](C)C(=O)N2` [Compound 18, (3S,7R)-3-(4-(5-chloro-2-(4-(trifluoromethyl)-1H-1,2,3-triazol-1-yl)phenyl) -6-oxopyrimidin-1(6H)-yl)-2^5,2^6-difluoro-7-methyl-1^1-(methyl-d3)-1^1H-9-aza-1(5,4)-pyrazola-2(1,3)-benzenacyclononaphan-8-one], the IC50 was 11100 nM on Human FIIa, 627 nM against Human Trypsin and 223 nM against α-Chymotrypsin. Moreover, the bioavailability in data set [1] was determined as 21.9%.
For the compound `C[C@@H]1CCC[C@H](n2cnc(-c3cc(Cl)ccc3-n3cc(C(F)(F)F)nn3)cc2=O)c2cc(cc(F)c2F)-c2c(cnn2C(F)F)NC1=O` [Compound 12, (3R,7R)-3-(4-(5-chloro-2-(4-(trifluoromethyl)-1H-1,2,3-triazol-1-yl)phenyl) -6-oxopyrimidin-1(6H)-yl)-24,2^5-difluoro-7-methyl-1^1-difluoromethyl-1^1H-9-aza-1(5,4)-pyr azola-2(1,3)-benzenacyclononaphan-8-one], the “Human Plasma APTT 1.5x” value in the data set with Pooled human plasma is 0.28 µM. Moreover, the bioavailability in “in vivo” turned out to be 29.4%. Besides, the half-maximal inhibitory concentration (IC50) on Human Factor XIa worked out at 0.31 nM.
